Data: US20240199542A1, “SUBSTITUTED PYRROLIDIN-2-ONES, SALTS THEREOF AND THEIR USE AS HERBICIDALLY ACTIVE SUBSTANCES” (Bayer Aktiengesellschaft, priority 2021, published 2024)

What was measured:
Format in all cases: in vivo
[1] = tested on: Alopecurus myosuroides (ALOMY); assay: Herbicidal pre-emergence action; conditions: 1280 g/ha, graded after ca. 3 weeks
Text: (§1) Seeds of mono- and dicotyledonous weed plants and crop plants were sown, in plastic or organic planting pots, in sandy loam and covered with soil. The compounds according to the invention, formulated in the form of wettable powders (WP) or as emulsifiable concentrates (EC), were applied to the surface of the covering soil as aqueous suspension or emulsion, with the addition of 0.5% of an additive, at an application rate of 600 1 of water/ha (converted).
(§2) Following treatment, the pots were placed in a greenhouse and kept under optimum growth conditions for the test plants. The visual grading of the damage to the test plants was carried out after ca. 3 weeks in comparison to untreated controls (herbicidal effect in percent (%): 100% effect=plants have died off, 0% effect=as control plants).
(§3) Tables A1 to A16, below, show the effects of selected compounds of the general formula (I) according to table 1 on various harmful plants and an application rate corresponding to 1280 g/ha or lower obtained by the experimental procedure mentioned above.

Avena fatua (AVEFA) [2] = assay: Herbicidal pre-emergence action; conditions: 1280 g/ha, graded after ca. 3 weeks
Text: as §1, §2, §3

[3] = tested on: Cyperus esculentus (CYPES); assay: Herbicidal pre-emergence action; conditions: 1280 g/ha, graded after ca. 3 weeks
Text: as §1, §2, §3

[4] = tested on: Echinochloa crus-galli (ECHCG); assay: Herbicidal pre-emergence action; conditions: 1280 g/ha, graded after ca. 3 weeks
Text: as §1, §2, §3

[5] = tested on: Polygonum convolvulus (POLCO); assay: Herbicidal pre-emergence action; conditions: 1280 g/ha, graded after ca. 3 weeks
Text: as §1, §2, §3

[6] = tested on: Alopecurus myosuroides (ALOMY); assay: Herbicidal post-emergence action; conditions: 1280 g/ha, assessed after ca. 3 weeks
Text: (§4) Seeds of mono- and dicotyledonous weed plants and crop plants were sown, in plastic or organic planting pots, in sandy loam, covered with soil and grown in a greenhouse under controlled growth conditions. 2 to 3 weeks after sowing, the test plants were sprayed in the single-leaf stage. The compounds according to the invention, formulated in form of wettable powders (WP) or as emulsifiable concentrates (EC), were sprayed onto the green plant parts as aqueous suspension or emulsion, with the addition of 0.5% of an additive, at an application rate of 600 1 of water/ha (converted). The test plants were placed in the greenhouse for ca. 3 weeks under optimum growth conditions, and then the effect of the preparations was assessed visually in comparison with untreated controls (herbicidal effect in percent (%): 100% effect=plants have died off, 0% effect=as control plants).
(§5) Tables B1 to B16 below show the effects of selected compounds of the general formula (I) according to table 1 on various harmful plants and an application rate corresponding to 1280 g/ha or 320 g/ha obtained by the experimental procedure mentioned above.

[7] = tested on: Echinochloa crus-galli (ECHCG); assay: Herbicidal post-emergence action; conditions: 1280 g/ha, assessed after ca. 3 weeks
Text: as §4, §5

[8] = tested on: Lolium multiflorum (LOLMU); assay: Herbicidal post-emergence action; conditions: 1280 g/ha, assessed after ca. 3 weeks
Text: as §4, §5

Setaria viridis (SETVI) [9] = assay: Herbicidal post-emergence action; conditions: 1280 g/ha, assessed after ca. 3 weeks
Text: as §4, §5

Veronica persica (VERPE) = assay: Herbicidal pre-emergence action; conditions: 1280 g/ha, graded after ca. 3 weeks
Text: as §1, §2, §3

Setaria viridis (SETVI) [10] = assay: Herbicidal pre-emergence action; conditions: 1280 g/ha, graded after ca. 3 weeks
Text: as §1, §2, §3

[11] = tested on: Lolium multiflorum (LOLMU); assay: Herbicidal pre-emergence action; conditions: 1280 g/ha, graded after ca. 3 weeks
Text: as §1, §2, §3

Avena fatua (AVEFA) [12] = assay: Herbicidal post-emergence action; conditions: 1280 g/ha, assessed after ca. 3 weeks
Text: as §4, §5

SMILES	Pre-emergence activity against ALOMY [1]	Pre-emergence activity against AVEFA (Avena fatua (AVEFA) [2])	Pre-emergence activity against CYPES [3]	Pre-emergence activity against ECHCG [4]	Pre-emergence activity against POLCO [5]	Post-emergence activity against ALOMY [6]	Post-emergence activity against ECHCG [7]	Post-emergence activity against LOLMU [8]	Post-emergence activity against SETVI (Setaria viridis (SETVI) [9])	Pre-emergence activity against VERPE (Veronica persica (VERPE))	Pre-emergence activity against SETVI (Setaria viridis (SETVI) [10])	Pre-emergence activity against LOLMU [11]	Post-emergence activity against AVEFA (Avena fatua (AVEFA) [12])
COc1ccc(OCCOC(=O)CC2CCC(=O)N2Cc2cccc(F)c2F)cc1 (racemic) [Example I-031]	90%	100%	80%	80%	80%	90%	90%	90%	80%				
Cc1ccc(CN2C(=O)CCC2CC(=O)NS(C)(=O)=O)c(F)c1F (racemic) [Example I-087]	90%									100%			
O=C(CC1CCC(=O)N1Cc1cccc(F)c1F)NCc1ccc(Cl)nc1 (racemic) [Example I-102]					80%					90%			
NC(=O)CC1CCC(=O)N1Cc1cccc(F)c1F (racemic) [Example I-057]	90%	80%	100%		80%						80%		
CCC(C)OC(=O)CC1CCC(=O)N1Cc1cccc(F)c1F (racemic) [Example I-030]	90%	100%		80%	80%	80%	80%	80%		90%	80%	80%	80%
O=C(CC1CCC(=O)N1Cc1cccc(F)c1F)OCCS(=O)(=O)c1ccccc1 (racemic) [Example I-032]	90%	100%	80%	80%		80%	90%	90%		80%			
CC(C)C(C)OC(=O)CC1CCC(=O)N1Cc1cccc(F)c1F (racemic) [Example I-036]	90%	100%		80%	80%	80%	90%			90%	100%	80%	90%
Cc1ccc2c(c1)C(NC(=O)CC1CCC(=O)N1Cc1cccc(F)c1F)C(C)C2 (mixture of isomers) [Example I-106]										80%			
O=C(CC1CCC(=O)N1Cc1cccc(Cl)c1Cl)NS(=O)(=O)C(F)F (racemic) [Example I-095]										80%			
O=C(CC1CCC(=O)N1Cc1cccc(F)c1F)OC1CCC1 (racemic) [Example I-024]	90%	100%	90%	80%	80%	90%	90%	90%	80%		80%	90%	90%
Cc1nonc1NC(=O)CC1CCC(=O)N1Cc1cccc(F)c1F (centres unmarked) [Example I-046, 2-[1-[(2,3-difluorophenyl)methyl]-5-oxo-pyrrolidin-2-yl]-N-(4-methyl-1,2,5-oxadiazol-3-yl)acetamide]		100%	100%					80%		100%			90%
O=C(CC1CCC(=O)N1Cc1cccc(F)c1F)OCC1CC1 (racemic) [Example I-020]	80%	100%		80%		80%	90%	80%		80%		80%	90%
CCOC(=O)CC1CCC(=O)N1Cc1cccc(F)c1F (racemic) [Example I-019]	90%	100%	80%	90%	90%	80%	80%	90%			90%	90%	100%
CS(=O)(=O)NC(=O)CC1CCC(=O)N1Cc1cccc(Cl)c1Cl (racemic) [Example I-105]										90%			
CCCC(C)OC(=O)CC1CCC(=O)N1Cc1cccc(F)c1F (racemic) [Example I-028]	80%	100%	80%	80%		80%	80%	80%		80%	80%	90%	80%
